# Data: the NIST ThermoML archive (doi:10.1021/acs.jced.7b00060)
# ± gives the expanded uncertainty stated by the source.
# Experiment: not given
# Conditions: 428.15 K; 101.33 kPa; Liquid; Alternating current cell with electrodes
row,Structure (SMILES),electrical conductivity [S/m]
1,CCCC[N+]1(C)CCCC1.N#CN=C=[N-] [1-butyl-1-methylpyrrolidinium dicyanamide],10.5 ± 0.16
2,CC[S+](CC)CC.O=S(=O)([N-]S(=O)(=O)C(F)(F)F)C(F)(F)F [triethylsulfonium bis((trifluoromethyl)sulfonyl)imide],6.76 ± 0.1

# Same assay, conditions: 438.15 K; 101.33 kPa; Liquid; Alternating current cell with electrodes
row,Structure (SMILES),electrical conductivity [S/m]
1,CCCC[N+]1(C)CCCC1.N#CN=C=[N-] [1-butyl-1-methylpyrrolidinium dicyanamide],11.4 ± 0.17
2,CCCC[n+]1ccccc1.O=S(=O)([N-]S(=O)(=O)C(F)(F)F)C(F)(F)F [1-butylpyridinium bis[(trifluoromethyl)sulfonyl]imide],5.24 ± 0.079
3,CC[S+](C)CC.O=S(=O)([N-]S(=O)(=O)C(F)(F)F)C(F)(F)F [diethylmethylsulfonium bis[(trifluoromethyl)sulfonyl]imide],7.38 ± 0.11
4,CC[S+](CC)CC.O=S(=O)([N-]S(=O)(=O)C(F)(F)F)C(F)(F)F [triethylsulfonium bis((trifluoromethyl)sulfonyl)imide],7.37 ± 0.11

# Same assay, conditions: 448.15 K; 101.33 kPa; Liquid; Alternating current cell with electrodes
row,Structure (SMILES),electrical conductivity [S/m]
1,CCCC[N+]1(C)CCCC1.N#CN=C=[N-] [1-butyl-1-methylpyrrolidinium dicyanamide],12.3 ± 0.18
2,CC[S+](CC)CC.O=S(=O)([N-]S(=O)(=O)C(F)(F)F)C(F)(F)F [triethylsulfonium bis((trifluoromethyl)sulfonyl)imide],7.98 ± 0.12

# Same assay, conditions: 458.15 K; 101.33 kPa; Liquid; Alternating current cell with electrodes
row,Structure (SMILES),electrical conductivity [S/m]
1,CC[S+](C)CC.O=S(=O)([N-]S(=O)(=O)C(F)(F)F)C(F)(F)F [diethylmethylsulfonium bis[(trifluoromethyl)sulfonyl]imide],8.63 ± 0.13
2,CC[S+](CC)CC.O=S(=O)([N-]S(=O)(=O)C(F)(F)F)C(F)(F)F [triethylsulfonium bis((trifluoromethyl)sulfonyl)imide],8.59 ± 0.13

# Same assay, conditions: 468.15 K; 101.33 kPa; Liquid; Alternating current cell with electrodes
row,Structure (SMILES),electrical conductivity [S/m]
1,CC[S+](CC)CC.O=S(=O)([N-]S(=O)(=O)C(F)(F)F)C(F)(F)F [triethylsulfonium bis((trifluoromethyl)sulfonyl)imide],9.17 ± 0.14

# Experiment: refractive index (Na D-line) (dimensionless)
# Conditions: 283.15 K; 101.33 kPa; Liquid; Standard Abbe refractometry
row,Structure (SMILES),refractive index
1,CCCC[n+]1ccccc1.O=S(=O)([N-]S(=O)(=O)C(F)(F)F)C(F)(F)F [1-butylpyridinium bis[(trifluoromethyl)sulfonyl]imide],1.4474 ± 0.0029
2,CC[S+](C)CC.O=S(=O)([N-]S(=O)(=O)C(F)(F)F)C(F)(F)F [diethylmethylsulfonium bis[(trifluoromethyl)sulfonyl]imide],1.4276 ± 0.0029
3,CC[S+](CC)CC.O=S(=O)([N-]S(=O)(=O)C(F)(F)F)C(F)(F)F [triethylsulfonium bis((trifluoromethyl)sulfonyl)imide],1.4308 ± 0.0029

# Same assay, conditions: 288.15 K; 101.33 kPa; Liquid; Standard Abbe refractometry
row,Structure (SMILES),refractive index
1,CCCC[N+]1(C)CCCC1.N#CN=C=[N-] [1-butyl-1-methylpyrrolidinium dicyanamide],1.4862 ± 0.003
2,CCCC[n+]1ccccc1.O=S(=O)([N-]S(=O)(=O)C(F)(F)F)C(F)(F)F [1-butylpyridinium bis[(trifluoromethyl)sulfonyl]imide],1.4459 ± 0.0029
3,CC[S+](C)CC.O=S(=O)([N-]S(=O)(=O)C(F)(F)F)C(F)(F)F [diethylmethylsulfonium bis[(trifluoromethyl)sulfonyl]imide],1.4262 ± 0.0029
4,CC[S+](CC)CC.O=S(=O)([N-]S(=O)(=O)C(F)(F)F)C(F)(F)F [triethylsulfonium bis((trifluoromethyl)sulfonyl)imide],1.4293 ± 0.0029

# Same assay, conditions: 293.15 K; 101.33 kPa; Liquid; Standard Abbe refractometry
row,Structure (SMILES),refractive index
1,CCCC[N+]1(C)CCCC1.N#CN=C=[N-] [1-butyl-1-methylpyrrolidinium dicyanamide],1.4853 ± 0.003
2,CCCC[n+]1ccccc1.O=S(=O)([N-]S(=O)(=O)C(F)(F)F)C(F)(F)F [1-butylpyridinium bis[(trifluoromethyl)sulfonyl]imide],1.4444 ± 0.0029
3,CC[S+](C)CC.O=S(=O)([N-]S(=O)(=O)C(F)(F)F)C(F)(F)F [diethylmethylsulfonium bis[(trifluoromethyl)sulfonyl]imide],1.4247 ± 0.0029
4,CC[S+](CC)CC.O=S(=O)([N-]S(=O)(=O)C(F)(F)F)C(F)(F)F [triethylsulfonium bis((trifluoromethyl)sulfonyl)imide],1.4279 ± 0.0029

# Same assay, conditions: 298.15 K; 101.33 kPa; Liquid; Standard Abbe refractometry
row,Structure (SMILES),refractive index
1,CCCC[N+]1(C)CCCC1.N#CN=C=[N-] [1-butyl-1-methylpyrrolidinium dicyanamide],1.4847 ± 0.003
2,CCCC[n+]1ccccc1.O=S(=O)([N-]S(=O)(=O)C(F)(F)F)C(F)(F)F [1-butylpyridinium bis[(trifluoromethyl)sulfonyl]imide],1.4429 ± 0.0029
3,CC[S+](C)CC.O=S(=O)([N-]S(=O)(=O)C(F)(F)F)C(F)(F)F [diethylmethylsulfonium bis[(trifluoromethyl)sulfonyl]imide],1.4233 ± 0.0029
4,CC[S+](CC)CC.O=S(=O)([N-]S(=O)(=O)C(F)(F)F)C(F)(F)F [triethylsulfonium bis((trifluoromethyl)sulfonyl)imide],1.4264 ± 0.0029

# Same assay, conditions: 303.15 K; 101.33 kPa; Liquid; Standard Abbe refractometry
row,Structure (SMILES),refractive index
1,CCCC[N+]1(C)CCCC1.N#CN=C=[N-] [1-butyl-1-methylpyrrolidinium dicyanamide],1.4842 ± 0.003
2,CCCC[n+]1ccccc1.O=S(=O)([N-]S(=O)(=O)C(F)(F)F)C(F)(F)F [1-butylpyridinium bis[(trifluoromethyl)sulfonyl]imide],1.4414 ± 0.0029
3,CC[S+](C)CC.O=S(=O)([N-]S(=O)(=O)C(F)(F)F)C(F)(F)F [diethylmethylsulfonium bis[(trifluoromethyl)sulfonyl]imide],1.4219 ± 0.0029
4,CC[S+](CC)CC.O=S(=O)([N-]S(=O)(=O)C(F)(F)F)C(F)(F)F [triethylsulfonium bis((trifluoromethyl)sulfonyl)imide],1.4249 ± 0.0029

# Same assay, conditions: 308.15 K; 101.33 kPa; Liquid; Standard Abbe refractometry
row,Structure (SMILES),refractive index
1,CCCC[N+]1(C)CCCC1.N#CN=C=[N-] [1-butyl-1-methylpyrrolidinium dicyanamide],1.4836 ± 0.003
2,CCCC[n+]1ccccc1.O=S(=O)([N-]S(=O)(=O)C(F)(F)F)C(F)(F)F [1-butylpyridinium bis[(trifluoromethyl)sulfonyl]imide],1.4399 ± 0.0029
3,CC[S+](C)CC.O=S(=O)([N-]S(=O)(=O)C(F)(F)F)C(F)(F)F [diethylmethylsulfonium bis[(trifluoromethyl)sulfonyl]imide],1.4204 ± 0.0029
4,CC[S+](CC)CC.O=S(=O)([N-]S(=O)(=O)C(F)(F)F)C(F)(F)F [triethylsulfonium bis((trifluoromethyl)sulfonyl)imide],1.4234 ± 0.0029

# Same assay, conditions: 313.15 K; 101.33 kPa; Liquid; Standard Abbe refractometry
row,Structure (SMILES),refractive index
1,CCCC[N+]1(C)CCCC1.N#CN=C=[N-] [1-butyl-1-methylpyrrolidinium dicyanamide],1.4832 ± 0.003
2,CCCC[n+]1ccccc1.O=S(=O)([N-]S(=O)(=O)C(F)(F)F)C(F)(F)F [1-butylpyridinium bis[(trifluoromethyl)sulfonyl]imide],1.4384 ± 0.0029
3,CC[S+](C)CC.O=S(=O)([N-]S(=O)(=O)C(F)(F)F)C(F)(F)F [diethylmethylsulfonium bis[(trifluoromethyl)sulfonyl]imide],1.419 ± 0.0029
4,CC[S+](CC)CC.O=S(=O)([N-]S(=O)(=O)C(F)(F)F)C(F)(F)F [triethylsulfonium bis((trifluoromethyl)sulfonyl)imide],1.4219 ± 0.0029

# Same assay, conditions: 318.15 K; 101.33 kPa; Liquid; Standard Abbe refractometry
row,Structure (SMILES),refractive index
1,CCCC[N+]1(C)CCCC1.N#CN=C=[N-] [1-butyl-1-methylpyrrolidinium dicyanamide],1.4826 ± 0.003
2,CCCC[n+]1ccccc1.O=S(=O)([N-]S(=O)(=O)C(F)(F)F)C(F)(F)F [1-butylpyridinium bis[(trifluoromethyl)sulfonyl]imide],1.4369 ± 0.0029
3,CC[S+](C)CC.O=S(=O)([N-]S(=O)(=O)C(F)(F)F)C(F)(F)F [diethylmethylsulfonium bis[(trifluoromethyl)sulfonyl]imide],1.4175 ± 0.0029
4,CC[S+](CC)CC.O=S(=O)([N-]S(=O)(=O)C(F)(F)F)C(F)(F)F [triethylsulfonium bis((trifluoromethyl)sulfonyl)imide],1.4204 ± 0.0029

# Same assay, conditions: 323.15 K; 101.33 kPa; Liquid; Standard Abbe refractometry
row,Structure (SMILES),refractive index
1,CCCC[N+]1(C)CCCC1.N#CN=C=[N-] [1-butyl-1-methylpyrrolidinium dicyanamide],1.4818 ± 0.003
2,CCCC[n+]1ccccc1.O=S(=O)([N-]S(=O)(=O)C(F)(F)F)C(F)(F)F [1-butylpyridinium bis[(trifluoromethyl)sulfonyl]imide],1.4354 ± 0.0029
3,CC[S+](C)CC.O=S(=O)([N-]S(=O)(=O)C(F)(F)F)C(F)(F)F [diethylmethylsulfonium bis[(trifluoromethyl)sulfonyl]imide],1.4161 ± 0.0029
4,CC[S+](CC)CC.O=S(=O)([N-]S(=O)(=O)C(F)(F)F)C(F)(F)F [triethylsulfonium bis((trifluoromethyl)sulfonyl)imide],1.419 ± 0.0029

# Same assay, conditions: 328.15 K; 101.33 kPa; Liquid; Standard Abbe refractometry
row,Structure (SMILES),refractive index
1,CCCC[N+]1(C)CCCC1.N#CN=C=[N-] [1-butyl-1-methylpyrrolidinium dicyanamide],1.481 ± 0.003
2,CCCC[n+]1ccccc1.O=S(=O)([N-]S(=O)(=O)C(F)(F)F)C(F)(F)F [1-butylpyridinium bis[(trifluoromethyl)sulfonyl]imide],1.4339 ± 0.0029
3,CC[S+](C)CC.O=S(=O)([N-]S(=O)(=O)C(F)(F)F)C(F)(F)F [diethylmethylsulfonium bis[(trifluoromethyl)sulfonyl]imide],1.4146 ± 0.0029
4,CC[S+](CC)CC.O=S(=O)([N-]S(=O)(=O)C(F)(F)F)C(F)(F)F [triethylsulfonium bis((trifluoromethyl)sulfonyl)imide],1.4175 ± 0.0029

# Same assay, conditions: 333.15 K; 101.33 kPa; Liquid; Standard Abbe refractometry
row,Structure (SMILES),refractive index
1,CCCC[N+]1(C)CCCC1.N#CN=C=[N-] [1-butyl-1-methylpyrrolidinium dicyanamide],1.48 ± 0.003
2,CCCC[n+]1ccccc1.O=S(=O)([N-]S(=O)(=O)C(F)(F)F)C(F)(F)F [1-butylpyridinium bis[(trifluoromethyl)sulfonyl]imide],1.4324 ± 0.0029
3,CC[S+](C)CC.O=S(=O)([N-]S(=O)(=O)C(F)(F)F)C(F)(F)F [diethylmethylsulfonium bis[(trifluoromethyl)sulfonyl]imide],1.4132 ± 0.0028
4,CC[S+](CC)CC.O=S(=O)([N-]S(=O)(=O)C(F)(F)F)C(F)(F)F [triethylsulfonium bis((trifluoromethyl)sulfonyl)imide],1.4161 ± 0.0029

# Same assay, conditions: 338.15 K; 101.33 kPa; Liquid; Standard Abbe refractometry
row,Structure (SMILES),refractive index
1,CCCC[N+]1(C)CCCC1.N#CN=C=[N-] [1-butyl-1-methylpyrrolidinium dicyanamide],1.479 ± 0.003
2,CCCC[n+]1ccccc1.O=S(=O)([N-]S(=O)(=O)C(F)(F)F)C(F)(F)F [1-butylpyridinium bis[(trifluoromethyl)sulfonyl]imide],1.4309 ± 0.0029
3,CC[S+](C)CC.O=S(=O)([N-]S(=O)(=O)C(F)(F)F)C(F)(F)F [diethylmethylsulfonium bis[(trifluoromethyl)sulfonyl]imide],1.4118 ± 0.0028
4,CC[S+](CC)CC.O=S(=O)([N-]S(=O)(=O)C(F)(F)F)C(F)(F)F [triethylsulfonium bis((trifluoromethyl)sulfonyl)imide],1.4148 ± 0.0029

# Same assay, conditions: 343.15 K; 101.33 kPa; Liquid; Standard Abbe refractometry
row,Structure (SMILES),refractive index
1,CCCC[N+]1(C)CCCC1.N#CN=C=[N-] [1-butyl-1-methylpyrrolidinium dicyanamide],1.4779 ± 0.003
2,CCCC[n+]1ccccc1.O=S(=O)([N-]S(=O)(=O)C(F)(F)F)C(F)(F)F [1-butylpyridinium bis[(trifluoromethyl)sulfonyl]imide],1.4294 ± 0.0029
3,CC[S+](C)CC.O=S(=O)([N-]S(=O)(=O)C(F)(F)F)C(F)(F)F [diethylmethylsulfonium bis[(trifluoromethyl)sulfonyl]imide],1.4103 ± 0.0028
4,CC[S+](CC)CC.O=S(=O)([N-]S(=O)(=O)C(F)(F)F)C(F)(F)F [triethylsulfonium bis((trifluoromethyl)sulfonyl)imide],1.4134 ± 0.0028
